Values of other authors in patent publication US20140080846A1, “Method of treating orphan respiratry diseases using doxofylline” (priority 2012, published 2014).

Columns and labels:
[1] = for subjects dropped out of the study due to side effects: large randomized clinical study, 12 week testing period, asthma patients
[2] = intravenous, CF patients

Cn1c(=O)c2[nH]cnc2n(C)c1=O [theophylline]
subjects dropped out of the study due to side effects [1]: 31%
effect on Forced Expiratory Volume at 1 second (FEV1) and Forced Expiratory Flow at 0.75 seconds (FEF 0.75) [2]: positive results
patients treated in an emergency setting for overdose who die: Ten

Cn1c(=O)c2c(ncn2CC2OCCO2)n(C)c1=O [doxofylline, 7-(1,3-dioxolan-2-ylmethyl)-1,3-dimethylpurine-2,6-dione]
efficacy in treating chronic asthma ([1]; compared to theophylline): as effective as theophylline
subjects dropped out of the study due to side effects [1]: 11%
